ChEMBL document CHEMBL5226301, “Toward Raman Subcellular Imaging of Endothelial Dysfunction” (J Med Chem, 2021)

Test: Dissociation constant, pKa of compound
Assay type: physicochemical

SMILES	pKa
Oc1ccc(C#CC#Cc2ccccc2)cc1	9.5
Nc1ccc(C#CC#Cc2ccccc2)cc1	2.7
C(C#Cc1c[nH]cn1)#Cc1ccccc1	4
Nc1ccc(C#CC#Cc2ccc(O)cc2)cc1	2.8
Oc1ccc(C#CC#Cc2ccccc2)c(F)c1	8.5
Oc1c(F)cc(C#CC#Cc2ccccc2)cc1F	6.2

Second part, the molecule after the results:

pKa	SMILES
2.7	Nc1ccc(C#CC#Cc2ccccc2)c(O)c1
4.1	O=S(=O)(Nc1ccc(C#CC#Cc2ccccc2)cc1)C(F)(F)F
3.5	Nc1cccc(C#CC#Cc2ccccc2)c1
7.9	Oc1ccc(C#CC#Cc2ccccc2)cc1F
3.3	C(C#Cc1ccncc1)#Cc1ccccc1
5	Nc1cc(C#CC#Cc2ccccc2)ccn1
